Laboratory results from patent US11116757B2 (priority 2015, dated 2021).

What follows are compounds tested against DCN1-UBC12 interaction (Homo sapiens (Human), UniProt Q96GG9) (assay: biochemical). Settings: TR-FRET IC50.
Assay type: binding

Chain of DCN1-UBC12 interaction (Q96GG9 60-248 limits assumed): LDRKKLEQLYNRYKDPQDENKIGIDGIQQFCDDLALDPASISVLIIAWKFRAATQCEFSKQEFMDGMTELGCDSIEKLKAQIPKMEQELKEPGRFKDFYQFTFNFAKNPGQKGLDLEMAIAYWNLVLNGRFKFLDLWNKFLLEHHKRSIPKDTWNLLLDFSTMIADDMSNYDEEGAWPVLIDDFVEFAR

Compound | IC50 [µM]
CCCC(C)N1CCC(N(Cc2ccccc2)C(=O)Nc2ccc(C(C)(C)C)cc2)CC1 (stereo not shown) [A100] | 1.41
CCCC(C)N1CCC(N(Cc2ccccc2)C(=O)Nc2ccc(Cl)cc2)CC1 (stereo not shown) [A13] | 0.083

Same assay, conditions: Table 4, commercial compounds; read-out: TR-FRET IC50

Compound | IC50 [µM]
Cc1cc(C)n(-c2ccc(NC(=O)C3CCN(C(=O)CC(F)(F)F)CC3)cc2)n1 [C34] | > 67.6
Cc1ccc(NC(=O)C2CCN(C(=O)c3ccccc3C)CC2)cc1Cl [C14] | > 67.6
O=C(Nc1cccc([N+](=O)[O-])c1)C1CCN(C(=O)c2cccc3ccccc23)CC1 [C64] | > 67.6
COc1ccc(C(=O)N2CCC(C(=O)Nc3ccccc3C)CC2)c2ccccc12 [C62] | > 67.6
COc1cc(C(=O)N2CCC(C(=O)Nc3ccc(Cl)cc3)CC2)cc(OC)c1OC [C23] | > 67.6
COc1ccc(C(=O)N2CCC(C(=O)Nc3ccc(F)c(Cl)c3)CC2)cc1 [C16] | > 67.6
COc1ccc(NC(=O)C2CCN(C(=O)c3ccccc3C)CC2)c(OC)c1 [C21] | > 67.6
COc1ccc(OC)c(NC(=O)C2CCN(C(C)=O)CC2)c1 [C33] | > 67.6
O=C(Nc1ccc(Cl)c(Cl)c1)C1CCN(C(=O)c2ccco2)CC1 [C40] | > 67.6
O=C(Nc1ccc(F)c(Cl)c1)C1CCN(C(=O)c2ccc(Br)cc2)CC1 [C70] | > 83.8
CCc1ccc(NC(=O)C2CCN(C(=O)N3CC(C)Oc4ccccc43)CC2)cc1 (stereo not shown) [C52] | > 67.6
O=C(Nc1cccc(C(F)(F)F)c1)C1CCN(C(=O)/C=C/c2ccccc2)CC1 [C57] | > 67.6

Same assay, conditions: Table 6, commercial compounds; read-out: TR-FRET IC50

Compound | IC50 [µM]
CCCN1CCN(C(=O)c2cnn(-c3nccc(-c4cccs4)n3)c2C2CC2)CC1 [E58] | > 67.6
CCN(CC)CCN(CC)C(=O)c1cnn(-c2ncc(C)c(-c3cccs3)n2)c1C1CC1 [E18] | 38.1
CCCCN(C)C(=O)c1cnn(-c2ncc(C)c(-c3cccs3)n2)c1C [E42] | > 67.6
CCCN1CCN(C(=O)c2cnn(-c3nccc(-c4cccs4)n3)c2C)CC1 [E60] | > 68
CCN(CCN(C)C)C(=O)c1cnn(-c2ncc(C)c(-c3cccs3)n2)c1COC [E46] | > 67.6
COCCN1CCN(C(=O)c2cnn(-c3nccc(-c4cc(C)sc4C)n3)c2COC)CC1 [E8] | 22.8
CCN(CCN(C)C)C(=O)c1cnn(-c2ncc(C)c(-c3cccs3)n2)c1C1CC1 [E53] | > 67.6
CC(=O)N1CCN(C(=O)c2cnn(-c3ncc(C)c(-c4cccs4)n3)c2C2CC2)CC1 [E50] | > 67.6
CCN1CCN(C(=O)c2cnn(-c3ncc(C)c(-c4cccs4)n3)c2C2CC2)CC1 [E44] | > 67.6
CCN(CC)CCN(CC)C(=O)c1cnn(-c2ncc3c(n2)-c2ccccc2CC3)c1C1CC1 [E9] | 23.1
CCN1CCN(C(=O)c2cnn(-c3nccc(-c4cccs4)n3)c2C(C)C)CC1 [E4] | 13.1

Same assay, conditions: read-out: TR-FRET IC50

Compound | IC50 [µM]
CCCC(C)N1CCC(N(Cc2ccccc2)C(=O)Nc2cccc(OC)c2)CC1 (stereo not shown) [A131] | 3.15
CCCC(C)N1CCC(N(Cc2ccccc2)C(=O)Nc2ccccc2Sc2ccccc2)CC1 (stereo not shown) [A303] | > 89.9
CCCC(C)N1CCC(N(Cc2ccccc2)C(=O)Nc2ccc(C)cc2F)CC1 (stereo not shown) [A157] | 7.11
CCCCN1CCC(N(Cc2ccccc2)C(=O)Nc2cccc([N+](=O)[O-])c2)CC1 [A104] | 1.85
CCCC(C)N1CCC(N(Cc2ccccc2)C(=O)Nc2ccc3ccccc3c2)CC1 (stereo not shown) [A10] | 0.0789
O=C(Nc1cc(F)cc(C(F)(F)F)c1)N(Cc1ccccc1)C1CCN(Cc2ccc[nH]2)CC1 [A215] | > 23.4
Cc1ccc(CN(C(=O)Nc2ccccc2Br)C2CCN(Cc3ccccc3)CC2)o1 [B91] | > 67.6
CC(c1ccc(Cl)cc1)N1CCC(N(Cc2ccccc2)C(=O)Nc2cc(F)cc(C(F)(F)F)c2)CC1 (stereo not shown) [A216] | > 23.8
CCCC(C)N1CCC(N(Cc2ccccc2)C(=O)Nc2ccc(Cl)cc2C(=O)OC)CC1 (stereo not shown) [A266] | > 66.2
C=CS(=O)(=O)Nc1cccc(CN(C(=O)Nc2cccc(C(F)(F)F)c2)C2CCN(C(C)CCC)CC2)c1 (stereo not shown) [A27] | 0.165
CCCCN1CCC(C(Cc2ccccc2)C(=O)Nc2cccc(C(F)(F)F)c2)CC1 (stereo not shown) [A156] | 7.11
CCCC(C)N1CCC(N(Cc2ccccc2)C(=O)Nc2ccc(C(N)=O)cc2)CC1 (stereo not shown) [A258] | > 62.2
CCOc1ccc(C(=O)N2CCCC(c3nc4ccccc4s3)C2)cc1 (stereo not shown) [D25] | > 67.6
CCCC(C)N1CCC(N(CCCNC(=O)CCl)C(=O)Nc2cccc(C(F)(F)F)c2)CC1 (stereo not shown) [drawing 836] | > 53
C=CS(=O)(=O)NCCN(C(=O)Nc1cccc(C(F)(F)F)c1)C1CCN(C(C)CCC)CC1 (stereo not shown) [drawing 839] | > 41
CCCC(C)N1CCC(N(Cc2ccccc2)C(=O)Nc2ccc(O)cc2C)CC1 (stereo not shown) [A115] | 2.36
CC(=O)N1CCC(N(Cc2ccco2)C(=O)Nc2ccc(C)c(C)c2)CC1 [B69] | > 67.6
CCCC(C)N1CCC(N(Cc2ccccc2)C(=O)Nc2ccc(C(F)(F)F)cc2)CC1 (stereo not shown) [A41] | 0.237
CCOC(=O)Cc1ccc(NC(=O)N(Cc2ccco2)C2CCN(C(C)=O)CC2)cc1 [B75] | > 67.6
CCCC(C)N1CCC(N(Cc2ccccc2)C(=O)Nc2cc(F)c(F)c(F)c2)CC1 (stereo not shown) [A59] | 0.355
CCCC(C)N1CCC(N(Cc2ccccc2)C(=O)Nc2ccc(C(=O)OC)cc2)CC1 (stereo not shown) [A163] | 8.42

Compound | IC50 [µM]
CCCC(C)N1CCC(N(Cc2ccccc2)C(=O)Nc2ccccc2CC)CC1 (stereo not shown) [A270] | > 67.3
O=C(NCC(=O)N1CCC(c2nc3ccccc3s2)CC1)c1cccc(F)c1 [D23] | > 67.6
CCCC(C)N1CCC(N(CCCNC(=O)CCl)C(=O)Nc2cccc(C(F)(F)F)c2)CC1 (stereo not shown) [A245] | > 53.9
CCCC(C)N1CCC(N(Cc2ccccc2)C(=O)Nc2cccc(OCc3ccccc3)c2)CC1 (stereo not shown) [A94] | 1.29
O=C(Nc1cccc(C(F)(F)F)c1)NC1CCN(Cc2ccc(Cl)cc2)CC1 [A186, 1-(1-(4-Chlorobenzyl)Piperidin-4-yl)-3-(3-(Trifluoromethyl)Phenyl)Urea] | 33.4
O=C(c1ccccc1Br)N1CCC(c2nc3ccccc3s2)CC1 [D8] | 19.8
Cn1nccc1-c1cccc(NC(=O)NC2CCN(Cc3ccccc3)CC2)c1 [A263, 1-(1-Benzylpiperidin-4-yl)-3-(3-(1-Methyl-1H-Pyrazol-5-yl)Phenyl)Urea] | > 64.6
CCCC(C)N1CCC(N(Cc2ccccc2)C(=O)Nc2ccc(Oc3ccncc3)cc2)CC1 (stereo not shown) [A69] | 0.567
CCCC(C)N1CCC(N(Cc2ccccc2)C(=O)Nc2ccc(SC(F)(F)F)cc2)CC1 (stereo not shown) [A14] | 0.0853
CCCC(C)N1CCC(N(Cc2ccccc2)C(=O)Nc2ccccc2C(N)=O)CC1 (stereo not shown) [A257] | > 61.8
Cc1ccccc1CN1CCC(NC(=O)Nc2cccc(C(F)(F)F)c2)CC1 [A135] | 3.35
CCCCN1CCC(N(Cc2ccccc2)C(=O)Nc2cccc(C(F)(F)F)c2F)CC1 [A70] | 0.583
CCCC(C)N1CCC(N(Cc2ccccc2)C(=O)Nc2ccc(CC)cc2)CC1 (stereo not shown) [A56] | 0.315
O=C(Nc1cccc(C(F)(F)F)c1)N1CCN(Cc2cccnc2)CC1 [B116] | > 74.8
CCCC(C)N1CCC(N(Cc2cccc(NC(=O)CCl)c2)C(=O)Nc2cccc(C(F)(F)F)c2)CC1 (stereo not shown) [drawing 842] | 0.095
CCCC(C)N1CCC(N(Cc2ccccc2)C(=O)Nc2ccc(NC(C)=O)cc2)CC1 (stereo not shown) [A291] | > 77.1
CCN1CCC(N(Cc2ccco2)C(=O)Nc2cccc(C(F)(F)F)c2)CC1 [B3] | 3.85
CCCC(C)N1CCC(N(Cc2ccccc2)C(=O)Nc2cc(Cl)ccc2Cl)CC1 (stereo not shown) [A152] | 6.27
CCCC(C)N1CCC(N(Cc2ccccc2)C(=O)Nc2cc(Cl)cc(C(F)(F)F)c2)CC1 (stereo not shown) [A113] | 2.35
CCCC(C)N1CCC(N(Cc2ccccc2)C(=O)Nc2cccc(C)c2)CC1 (stereo not shown) [A82] | 0.883
CCCC(C)N1CCC(N(Cc2ccccc2)C(=O)Nc2ccc(Cl)c([N+](=O)[O-])c2)CC1 (stereo not shown) [A11] | 0.0818

Compound | IC50 [µM]
CCCC(C)N1CCC(N(Cc2ccccc2)C(=O)Nc2cc(F)ccc2Cl)CC1 (stereo not shown) [A169] | 11
CCN1CCC(N(Cc2ccco2)C(=O)Nc2cc(Cl)ccc2C)CC1 [B78] | > 67.6
C#CCCCN1CCC(N(Cc2ccccc2NC(=O)C=C)C(=O)Nc2ccc(Cl)c(Cl)c2)CC1 [A304] | > 9.74
1-Benzyl-1-(1-(Propylsulfonyl)Piperidin-4-yl)-3-(3-(Trifluoromethyl)Phenyl)Urea [A79] | 0.81
CC(Cc1cccc(C(F)(F)F)c1)NC1CCN(Cc2ccccc2)CC1 (stereo not shown) [B38] | > 61.3
O=C(NC1CCN(Cc2cccc(F)c2)CC1)C(F)(F)F [A307] | > 98.1
CC(c1ccc2c(c1)OCO2)N1CCC(N(Cc2ccccc2)C(=O)Nc2cc(F)cc(C(F)(F)F)c2)CC1 (stereo not shown) [A128] | 2.39
CCCC(C)N1CCC(N(Cc2ccccc2)C(=O)Nc2cccc(N3CCOCC3)c2)CC1 (stereo not shown) [A297] | > 83.6
COc1ccc(CN(C(=O)Nc2ccc(C)cc2)C2CCN(C(C)=O)CC2)cc1 [B83] | > 67.6
O=C(Nc1cc(F)cc(C(F)(F)F)c1)N(Cc1ccccc1)C1CCN(Cc2ncc[nH]2)CC1 [A225] | > 26.1
CCCN1CCC(N(CC2CCCCC2)C(=O)Nc2cccc(C(F)(F)F)c2)CC1 [A92, 1-(Cyclohexylmethyl)-1-(1-Propylpiperidin-4-yl)-3-(3-(Trifluoromethyl)Phenyl)Urea] | 1.23
CCCCN1CCC(N(Cc2ccccc2)C(=O)Nc2cncc(C(F)(F)F)c2)CC1 [A262] | > 63.4
CCCC(C)N1CCC(N(Cc2ccccc2NC(=O)CCl)C(=O)Nc2cccc(C(F)(F)F)c2)CC1 (stereo not shown) [drawing 843] | 0.208
CCCCCCc1ccc(NC(=O)N(Cc2ccccc2)C2CCN(C(C)CCC)CC2)cc1 (stereo not shown) [A19] | 0.116
CCCC(C)N1CCC(N(Cc2ccccc2)C(=O)Nc2cccc(Cl)c2Cl)CC1 (stereo not shown) [A103] | 1.74
CCCC(C)N1CCC(N(Cc2ccccc2)C(=O)Nc2ccc(F)c(F)c2F)CC1 (stereo not shown) [A286] | > 72.4
CCCC(C)N1CCC(N(Cc2ccccc2)C(=O)Nc2cc(C)oc2C(F)(F)F)CC1 (stereo not shown) [A255] | > 60.2
Cc1ccc(NC(=O)NC2CCN(Cc3ccccc3)CC2)cc1C [B63] | > 67.6
Cc1cc(NC(=O)NC2C(C)CN(Cc3ccccc3)CC2C)no1 (stereo not shown) [B121] | > 81.9
C=CS(=O)(=O)NCCN(C(=O)Nc1cccc(C(F)(F)F)c1)C1CCN(C(C)CCC)CC1 (stereo not shown) [A235] | > 41.1
CCCC(C)N1CCC(N(Cc2ccccc2)C(=O)Nc2ccc(CN3CCCC3)cc2)CC1 (stereo not shown) [A247] | > 58.5
